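Following 48 hours of exposure in 96-well plates, responses at five concentrations were used to interpolate endpoints linearly. Abbreviation: GI50, concentration required for 50% inhibition of growth.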 Activity calls are given as the source filed them. No stated cut-off is given here; in the data, active = GI50 up to about 1.1 µM and inactive = higher. A value given as a limit tells only on which side of the number the result lay.

We go through 13 molecules from ChEMBL document CHEMBL1201862, “PubChem BioAssay data set” (2004).

Holding throughout (assay): NCI-60 cell line screen, 48 h
The subject of assay [1] is 786-0.
For assay [2], the system named is A549.
For assay [3], the system named is ACHN.
In assay [4] the test system is HCT-15.
Assay [5] has as its system HOP-62.
The test system of assay [6] is KM12.
Assay [7] has as its system LOX IMVI.
In assay [8] the test system is Malme-3M.
For assay [9], the system named is NCI-H226.
Assay [10] concerns OVCAR-3.
Assay [11] deals with OVCAR-4.
Assay [12] relates to SK-MEL-5.
In assay [13] the test system is SNB-19.
Assay [14] concerns SNB-75.
For assay [15], the system named is TK-10.
Assay [16] deals with UACC-257.
The test system of assay [17] is A498.

On to `C/C(=N\NC(=N)N)C(CN1CCOCC1)C(c1ccccc1)c1c(O)c2ccccc2oc1=O` (centres undefined), for which the GI50 in assay [1] is > 100 µM (inactive); in [2], > 100 µM (inactive); in assay [3], > 100 µM (inactive); in [4], over 100 µM; in assay [5], > 100 µM (inactive); in assay [6] it was > 100 µM (inactive). The GI50 in [7] was > 100 µM (inactive); in assay [8] it was 25.9 µM (inactive); in assay [9], > 100 µM (inactive); in assay [10] it was > 100 µM (inactive); in assay [11], 61.9 µM (inactive); in [12], > 100 µM (inactive). Moreover, the GI50 is > 100 µM (inactive) in assay [13], 24.9 µM (inactive) in [14], > 100 µM (inactive) in assay [15] and > 100 µM (inactive) in assay [16].
Take `N#Cc1ccc(Nc2cnc3cc(N)ccc3n2)cc1`: the GI50 is 85.1 µM (inactive) in assay [1]; > 100 µM (inactive) in assay [2]; 69 µM (inactive) in assay [3]; over 100 µM in [4]; > 100 µM (inactive) in [5]; > 100 µM (inactive) in assay [6]. Also, the GI50 in assay [7] was 75.2 µM (inactive); in assay [8], > 100 µM (inactive); in assay [9], > 100 µM (inactive); in assay [10] it was 95.9 µM (inactive); in assay [11], > 100 µM (inactive); in [12], > 100 µM (inactive). Further, the GI50 in assay [13] was 71.4 µM (inactive); in assay [14] it was > 100 µM (inactive); in assay [15] it was > 100 µM (inactive); in assay [16], > 100 µM (inactive).
On to `N#CC1=C(N)Oc2c(ccc3cccnc23)C1c1ccccc1` (centres undefined), for which the GI50 is 6 µM (inactive) in [1]; 2.21 µM (inactive) in assay [17]; 0.738 µM (active) in assay [2]; 10.4 µM (inactive) in assay [3]; 0.443 µM in assay [4]; 1.16 µM (inactive) in assay [5]. The GI50 in [6] was 0.441 µM (active); in [7] it was 1.34 µM (inactive); in assay [8] it was 15.2 µM (inactive); in assay [10], 0.608 µM (active); in assay [11], 17.2 µM (inactive); in assay [12], 0.811 µM (active). Besides, the GI50 in assay [13] is 5.3 µM (inactive); in assay [14] it was 0.731 µM (active); in [15] it was 3.9 µM (inactive); in [16] it was 3.61 µM (inactive).
Consider `CCCC/C=C1\CCC(CN2CCCC2)C1=O` (centres undefined), for which the GI50 was 1.83 µM (inactive) in assay [1]; 14.7 µM (inactive) in assay [17]; 18.5 µM (inactive) in [2]; 6.46 µM (inactive) in [3]; 3.13 µM in assay [4]; 18.4 µM (inactive) in assay [5]. The GI50 is 2.61 µM (inactive) in assay [6]; 8.09 µM (inactive) in [7]; 17.8 µM (inactive) in assay [8]; 17.3 µM (inactive) in [9]; 17.1 µM (inactive) in assay [10]; 17.3 µM (inactive) in assay [12]. For the same molecule, the GI50 was 21.8 µM (inactive) in assay [13], 18.4 µM (inactive) in assay [14], 2.59 µM (inactive) in assay [15] and 18.1 µM (inactive) in assay [16].
For the molecule `Cc1nc2c(n1CC(C)(C)C)C(=O)c1ccccc1C2=O`, the GI50 is > 100 µM (inactive) in [1]; > 100 µM (inactive) in [2]; > 100 µM (inactive) in assay [3]; over 100 µM in [4]; > 100 µM (inactive) in assay [5]; > 100 µM (inactive) in assay [6]. The GI50 in assay [7] is 55.6 µM (inactive); in assay [8] it was 76.9 µM (inactive); in [9], > 100 µM (inactive); in assay [10], 66.7 µM (inactive); in assay [11] it was > 100 µM (inactive); in [12], 43.1 µM (inactive). For the same molecule, the GI50 in assay [13] was > 100 µM (inactive); in assay [14] it was > 100 µM (inactive); in [15], > 100 µM (inactive); in [16] it was 80.7 µM (inactive).
With `Cc1cc2c(c(C(N)=O)c1C)-c1cc(Cl)cc(Cl)c1C2=O`, the GI50 in assay [1] was 60.5 µM (inactive); in assay [17], 54.6 µM (inactive); in assay [3] it was > 100 µM (inactive); in [4], over 100 µM; in [5], > 100 µM (inactive); in [6] it was > 100 µM (inactive). Moreover, the GI50 in [7] was 93.3 µM (inactive); in [8], > 100 µM (inactive); in assay [10] it was > 100 µM (inactive); in [11], > 100 µM (inactive); in assay [13], 79.4 µM (inactive); in assay [14] it was 22.6 µM (inactive). Also, the GI50 in [15] and in [16] was > 100 µM (inactive) each time.
On to `C/C(CC(=O)Nc1ccc(C)c(C)c1)=N\NC(N)=O`, for which the GI50 in assay [1], in assay [17], in [2], in assay [3], in [5] and in [6] was > 100 µM (inactive) throughout. Also, the GI50 in assay [7] was > 100 µM (inactive); in [8] it was > 100 µM (inactive); in [9], 57.9 µM (inactive); in assay [10], > 100 µM (inactive); in [12], > 100 µM (inactive); in assay [14] it was > 100 µM (inactive). The GI50 in [15] and in assay [16] was > 100 µM (inactive) each time.
Consider `Cc1nc(Nc2ccccc2)sc1C(=O)CC(=O)C(=O)NC12CC3CC(CC(C3)C1)C2`, for which the GI50 in [1] was > 100 µM (inactive); in assay [2], > 100 µM (inactive); in assay [3], > 100 µM (inactive); in assay [4], over 100 µM; in assay [5] it was 83.2 µM (inactive); in [6], > 100 µM (inactive). Also, the GI50 in [7] was 50.4 µM (inactive); in assay [8] it was > 100 µM (inactive); in assay [9] it was > 100 µM (inactive); in [10] it was > 100 µM (inactive); in assay [11], > 100 µM (inactive); in [12] it was 74.5 µM (inactive). Moreover, the GI50 in assay [13] is > 100 µM (inactive); in assay [14] it was 33.9 µM (inactive); in assay [15], > 100 µM (inactive); in [16] it was > 100 µM (inactive).
Take `Cc1ccc(/C=C/C(=O)c2sc(-c3cccnc3)nc2C)cc1`: the GI50 in [1] was > 100 µM (inactive); in assay [17], > 100 µM (inactive); in assay [2], > 100 µM (inactive); in assay [3], > 100 µM (inactive); in assay [4], over 100 µM; in [5] it was > 100 µM (inactive). The GI50 in assay [6], in assay [7], in assay [8], in assay [9], in [10] and in assay [12] was > 100 µM (inactive) each time. Further, the GI50 in assay [15] and in [16] was > 100 µM (inactive) each time.
Regarding `Cc1nc2nnc(C)n2c2c1C(=O)Nc1ccccc1N2`, the GI50 in assay [1], in [2], in [3], in [5], in assay [6] and in assay [7] was > 100 µM (inactive) each time. Besides, the GI50 in assay [8], in [9], in assay [10], in [13], in assay [14] and in assay [15] was > 100 µM (inactive) each time. In addition, the GI50 in assay [16] was > 100 µM (inactive).
Take `CCOC(=O)C1=C(C)N(NC(=O)Nc2ccccc2)C2(N)N(NC(=O)Nc3ccccc3)C(C)=C(C(=O)OCC)C12C#N` (centres undefined): the GI50 is 18 µM (inactive) in [1]; 22.3 µM (inactive) in assay [17]; 26.5 µM (inactive) in [2]; 21 µM (inactive) in assay [3]; 19.4 µM in assay [4]; 18.9 µM (inactive) in [7]. The GI50 was 15.5 µM (inactive) in assay [8]; 18.4 µM (inactive) in assay [9]; 17.5 µM (inactive) in assay [10]; 17.4 µM (inactive) in [11]; 18.9 µM (inactive) in assay [14]; 25.2 µM (inactive) in [15]. Moreover, the GI50 in assay [16] was 23.7 µM (inactive).
With `CN(C)c1ccc(/C=C2\C=Cc3ccccc32)cc1`, the GI50 in [1] was 61 µM (inactive); in assay [17] it was 42.7 µM (inactive); in assay [2], 76.6 µM (inactive); in [3] it was > 100 µM (inactive); in assay [4], 34.6 µM; in [5] it was > 100 µM (inactive). Besides, the GI50 was 49.7 µM (inactive) in assay [6]; 47.2 µM (inactive) in assay [7]; > 100 µM (inactive) in assay [8]; 73.6 µM (inactive) in assay [10]; 50.5 µM (inactive) in [11]; 36.3 µM (inactive) in [12]. In addition, the GI50 was 59.2 µM (inactive) in [13], 11.3 µM (inactive) in [14] and > 100 µM (inactive) in assay [15].
Regarding `CC1=NN(C(=O)c2ccncc2)C(=O)C1/N=N/c1ccc(F)cc1` (centres undefined), the GI50 in assay [1] was > 100 µM (inactive); in [17], 60.5 µM (inactive); in assay [2] it was > 100 µM (inactive); in assay [3] it was > 100 µM (inactive); in [4] it was over 100 µM; in assay [7] it was > 100 µM (inactive). The GI50 in [8] is > 100 µM (inactive); in assay [9], 81.1 µM (inactive); in assay [10], > 100 µM (inactive); in [11], > 100 µM (inactive); in assay [12], > 100 µM (inactive); in [13] it was > 100 µM (inactive). In addition, the values for the GI50 in [14], in [15] and in assay [16] were 21.5 µM (inactive), > 100 µM (inactive) and > 100 µM (inactive), respectively.
